Data reported in PubChem BioAssay AID248 (DTP/NCI, 2004).
Values joined by “and” are separate entries in the source; they are usually repeats but may differ in a detail not shown here. Equal entries are not always repeated. Inconclusive results and toxic doses are left out. Rule as the data show it: active = T/C of 150% or more; inactive = T/C below 125%.

Tested on: L1210 leukemia ip in BDF1 mice, survival T/C
Assay: NCI In Vivo Anticancer Drug Screen. Data for tumor model L1210 Leukemia (intraperitoneal) in B6D2F1 (BDF1) mice
Details: endpoint: mean survival time, higher = longer survival
Outline: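 Transplanted-tumor mice were given test agent; controls received vehicle only. Survival readings from the two groups were divided (treated over control).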

[1] = dose: 75.0 mg/kg/injection, schedule: Q01DX001 (ip), vehicle: other
[2] = dose: 150.0 mg/kg/injection, schedule: Q01DX001 (ip), vehicle: other
[3] = dose: 100.0 mg/kg/injection, schedule: Q01DX001 (ip), vehicle: carboxymethylcellulose (CMC)
[4] = dose: 200.0 mg/kg/injection, schedule: Q01DX001 (ip), vehicle: carboxymethylcellulose (CMC)
[5] = dose: 200.0 mg/kg/injection, schedule: Q04DX002 (ip), vehicle: carboxymethylcellulose (CMC)
[6] = dose: 400.0 mg/kg/injection, schedule: Q01DX001 (ip), vehicle: carboxymethylcellulose (CMC)
[7] = dose: 100.0 mg/kg/injection, schedule: Q04DX003 (ip), vehicle: saline
[8] = dose: 100.0 mg/kg/injection, schedule: Q04DX003 (ip), vehicle: saline with Tween-80
[9] = dose: 200.0 mg/kg/injection, schedule: Q04DX003 (ip), vehicle: saline with Tween-80
[10] = dose: 100.0 mg/kg/injection, schedule: Q01DX009 (ip), vehicle: Klucel (hydroxypropylcellulose) (HPC)
[11] = dose: 200.0 mg/kg/injection, schedule: Q01DX009 (ip), vehicle: Klucel (hydroxypropylcellulose) (HPC)
[12] = dose: 400.0 mg/kg/injection, schedule: Q01DX009 (ip), vehicle: Klucel (hydroxypropylcellulose) (HPC)
[13] = dose: 50.0 mg/kg/injection, schedule: Q01DX001 (ip), vehicle: carboxymethylcellulose (CMC)
[14] = dose: 200.0 mg/kg/injection, schedule: Q04DX003 (ip), vehicle: saline
[15] = dose: 400.0 mg/kg/injection, schedule: Q04DX003 (ip), vehicle: saline
[16] = dose: 100.0 mg/kg/injection, schedule: Q01DX009 (ip), vehicle: saline with Tween-80
[17] = dose: 200.0 mg/kg/injection, schedule: Q01DX009 (ip), vehicle: saline with Tween-80

Measured: T/C

O=C1Nc2ccccc2C1O (stereo not given)
inactive: dose: 100.0 mg/kg/injection, schedule: Q01DX001 (ip), vehicle: saline 101 % of control | dose: 200.0 mg/kg/injection, schedule: Q01DX001 (ip), vehicle: saline 101 % of control | dose: 400.0 mg/kg/injection, schedule: Q01DX001 (ip), vehicle: saline 108 % of control

O=[N+]([O-])c1cc(/C=N/NC(=S)NC23CC4CC(CC(C4)C2)C3)ccc1Cl
inactive: [1] 97 % of control | [2] 89 % of control | dose: 300.0 mg/kg/injection, schedule: Q01DX001 (ip), vehicle: other 91 % of control

CCOC(=O)c1cc(OCC)c2c(ccc3ccccc32)n1
inactive: [3] 97 % of control | dose: 100.0 mg/kg/injection, schedule: Q01DX009 (ip), vehicle: carboxymethylcellulose (CMC) 95 % of control and 103 % of control | dose: 100.0 mg/kg/injection, schedule: Q04DX002 (ip), vehicle: carboxymethylcellulose (CMC) 102 % of control and 105 % of control | dose: 100.0 mg/kg/injection, schedule: Q04DX003 (ip), vehicle: carboxymethylcellulose (CMC) 103 % of control | [4] 112 % of control | dose: 200.0 mg/kg/injection, schedule: Q01DX009 (ip), vehicle: carboxymethylcellulose (CMC) 98 % of control and 106 % of control | [5] 97 % of control and 102 % of control | dose: 200.0 mg/kg/injection, schedule: Q04DX003 (ip), vehicle: carboxymethylcellulose (CMC) 97 % of control | [6] 100 % of control | dose: 400.0 mg/kg/injection, schedule: Q01DX009 (ip), vehicle: carboxymethylcellulose (CMC) 98 % of control and 101 % of control | dose: 400.0 mg/kg/injection, schedule: Q04DX002 (ip), vehicle: carboxymethylcellulose (CMC) 96 % of control and 97 % of control | dose: 400.0 mg/kg/injection, schedule: Q04DX003 (ip), vehicle: carboxymethylcellulose (CMC) 102 % of control

CC(C)Oc1ccc2ccccc2c1
inactive: dose: 12.5 mg/kg/injection, schedule: Q04DX003 (ip), vehicle: acetone 94 % of control | dose: 25.0 mg/kg/injection, schedule: Q04DX003 (ip), vehicle: acetone 93 % of control | dose: 50.0 mg/kg/injection, schedule: Q04DX003 (ip), vehicle: acetone 93 % of control

CCCCCCc1cc(N=Nc2ccc(S(=O)(=O)Nc3nccc(C)n3)cc2)c(O)cc1O
inactive: [3] 95 % of control | [4] 98 % of control | [6] 93 % of control

O=C(NC1CCCCC1)c1csnn1
inactive: [1] 89 % of control | [2] 97 % of control

O=C(O)CCCNCc1cc(=O)[nH]c(=O)[nH]1
inactive: [7] 101 % of control

COC(=O)c1ccc(OC(=S)N(C)C)cc1
inactive: dose: 100.0 mg/kg/injection, schedule: Q04DX003 (ip), vehicle: Klucel (hydroxypropylcellulose) (HPC) 93 % of control | dose: 200.0 mg/kg/injection, schedule: Q04DX003 (ip), vehicle: Klucel (hydroxypropylcellulose) (HPC) 98 % of control | dose: 400.0 mg/kg/injection, schedule: Q04DX003 (ip), vehicle: Klucel (hydroxypropylcellulose) (HPC) 95 % of control

CCOC(=O)Nc1nccs1
inactive: [8] 105 % of control | [9] 96 % of control

COC(=O)c1ccccc1NC(=O)Nc1ccc(SC)cc1
inactive: [10] 89 % of control | [11] 92 % of control | [12] 95 % of control

COc1ccc(CCNC(=O)Cc2ccc([N+](=O)[O-])cc2)cc1OC
inactive: [3] 89 % of control | [4] 98 % of control | [6] 93 % of control

CCCC(O)CN (stereo not given)
inactive: [13] 98 % of control | [3] 102 % of control | [4] 104 % of control | [6] 116 % of control

CCCCSSC(Cl)(Cl)Cl
inactive: dose: 6.25 mg/kg/injection, schedule: Q01DX009 (ip), vehicle: carboxymethylcellulose (CMC) 96 % of control and 104 % of control | dose: 12.5 mg/kg/injection, schedule: Q01DX001 (ip), vehicle: carboxymethylcellulose (CMC) 98 % of control | dose: 12.5 mg/kg/injection, schedule: Q01DX009 (ip), vehicle: carboxymethylcellulose (CMC) 101 % of control and 89 % of control | dose: 12.5 mg/kg/injection, schedule: Q04DX003 (ip), vehicle: carboxymethylcellulose (CMC) 96 % of control | dose: 25.0 mg/kg/injection, schedule: Q01DX001 (ip), vehicle: carboxymethylcellulose (CMC) 95 % of control | dose: 25.0 mg/kg/injection, schedule: Q01DX009 (ip), vehicle: carboxymethylcellulose (CMC) 96 % of control | dose: 25.0 mg/kg/injection, schedule: Q04DX002 (ip), vehicle: carboxymethylcellulose (CMC) 95 % of control and 107 % of control | dose: 25.0 mg/kg/injection, schedule: Q04DX003 (ip), vehicle: carboxymethylcellulose (CMC) 96 % of control | [13] 88 % of control | dose: 50.0 mg/kg/injection, schedule: Q04DX002 (ip), vehicle: carboxymethylcellulose (CMC) 95 % of control and 101 % of control | dose: 50.0 mg/kg/injection, schedule: Q04DX003 (ip), vehicle: carboxymethylcellulose (CMC) 103 % of control and 91 % of control | [5] 86 % of control

CN(C)c1ccc(/C=C2\N=C(c3ccc([N+](=O)[O-])cc3)OC2=O)cc1
inactive: [10] 96 % of control | [11] 101 % of control | [12] 93 % of control

COC(=O)c1nc(Cl)nc(S(C)(=O)=O)c1Cl
inactive: dose: 12.5 mg/kg/injection, schedule: Q01DX009 (ip), vehicle: Klucel (hydroxypropylcellulose) (HPC) 109 % of control | dose: 25.0 mg/kg/injection, schedule: Q01DX009 (ip), vehicle: Klucel (hydroxypropylcellulose) (HPC) 103 % of control | dose: 50.0 mg/kg/injection, schedule: Q01DX009 (ip), vehicle: Klucel (hydroxypropylcellulose) (HPC) 103 % of control and 89 % of control | [10] 92 % of control

O=C(O)c1ccc(NCc2cc(=O)[nH]c(=O)[nH]2)cc1
inactive: [7] 101 % of control | [14] 95 % of control | [15] 103 % of control

Nc1cccc(CC(=O)Nc2ccccc2)c1
inactive: dose: 100.0 mg/kg/injection, schedule: Q01DX009 (ip), vehicle: alcohol 93 % of control | dose: 100.0 mg/kg/injection, schedule: Q04DX003 (ip), vehicle: alcohol 97 % of control | dose: 200.0 mg/kg/injection, schedule: Q01DX009 (ip), vehicle: alcohol 105 % of control | dose: 200.0 mg/kg/injection, schedule: Q04DX003 (ip), vehicle: alcohol 100 % of control | dose: 400.0 mg/kg/injection, schedule: Q01DX009 (ip), vehicle: alcohol 103 % of control | dose: 400.0 mg/kg/injection, schedule: Q04DX003 (ip), vehicle: alcohol 100 % of control

CCC1(C)N=C(C)C(C)S1 (stereo not given)
inactive: [8] 111 % of control | [9] 100 % of control | dose: 400.0 mg/kg/injection, schedule: Q04DX003 (ip), vehicle: saline with Tween-80 100 % of control

CCC(C)C(C)(CO)CO (stereo not given)
inactive: [16] 102 % of control | [7] 90 % of control | [17] 88 % of control | [14] 93 % of control | dose: 400.0 mg/kg/injection, schedule: Q01DX009 (ip), vehicle: saline with Tween-80 89 % of control | [15] 97 % of control

O=C1c2ccccc2C(=O)N1Cc1c(Cl)cccc1[N+](=O)[O-]
inactive: [10] 107 % of control | [11] 103 % of control | [12] 92 % of control

Cc1c(-c2ccccc2)ccnc1C#N
inactive: dose: 50.0 mg/kg/injection, schedule: Q01DX009 (ip), vehicle: saline with Tween-80 97 % of control | [16] 102 % of control | [17] 97 % of control
